Results as given in PMC11822212, “High-throughput screening identifies Aurora kinase B as a critical therapeutic target for Merkel cell carcinoma” (Nature Communications, 2025).

Key:
Type in all cases: cell-based, human
[1] = test system: VP-MCC cell lines (WAGA, MKL-1, MKL-2); assay: qHTS cell viability, VP-MCC cell lines as a group (mean AUC, VP.MCC.avg); conditions: re-tested in triplicate, follow-up screen
[2] = test system: MKL-1 cells (VP-MCC); assay: qHTS cell viability (CellTiter-Glo, 72 h; primary and follow-up small molecule screen); conditions: for Percent viability: MKL1, 72h
[3] = test system: MCC26 cells (VN-MCC); assay: as above; conditions: for Percent viability: MCC26, 72h
[4] = test system: WAGA cells (VP-MCC); assay: as above; conditions: WAGA; for Percent viability: 72h
[5] = test system: UISO cells (VN-MCC); assay: as above; conditions: UISO; for Percent viability: 72h
[6] = test system: MCC13 cells (VN-MCC); assay: as above; conditions: for Percent viability: MCC13, 72h
[7] = test system: GDSC cancer cell lines; assay: Genomics of Drug Sensitivity in Cancer (GDSC) IC50 comparison across cancer cell lines; conditions: own IC50 estimates compared with public IC50 data
Protocol: Palo Alto, CA, USA) for these compounds from our small molecule screen. Following the graphing format in the GDSC database, compounds were ranked by IC50 and plotted in Rstudio using ggplot2, ggrepel, and scales packages. page 9: Supplementary Fig. S6. Au rora kinase inhibi tors mor e potentl y reduc e viability in VP-MCC than VN-MCC. […] Cell viability was measured by CellTiter- Glo at 72 h and by manual cell counts at 144 h. […] Consistent across n = 3 replicates . B) IC50 values (molar) for each aurora kinase inhibitor in each MCC cell line. […] IC50 values from GDSC (Gray-scale and green) were combined with IC50 values determined in our study (purple) and then ranked. n = number of experimental replicates for each cell line.

[8] = test system: MKL-2 cells (VP-MCC); assay: qHTS cell viability (CellTiter-Glo, 72 h; primary and follow-up small molecule screen); conditions: for Percent viability: MKL2, 72h

Cc1cc(Nc2cc(N3CCN(C)CC3)nc(Sc3ccc(NC(=O)C4CC4)cc3)n2)[nH]n1 [Tozasertib, reference compound]
VP-MCC viability (in words) [1]: consistently and potently reduced VP-MCC viability | Percent viability ([2]; Log (M) -5.33646): 35.7% | Percent viability ([2]; Log (M) -5.81358): 29.2% | Percent viability ([2]; Log (M) -6.2907): 29.7% | Percent viability ([2]; Log (M) -6.76782): 36.8% | Percent viability ([2]; Log (M) -7.24494): 39.2% | Percent viability ([2]; Log (M) -7.72207): 37.5% | Percent viability ([2]; Log (M) -8.19919): 101.6% | Percent viability ([2]; Log (M) -8.67631): 103.8% | Percent viability ([2]; Log (M) -9.15343): 98.2% | Percent viability ([2]; Log (M) -9.63055): 98.1% | Percent viability ([2]; Log (M) -10.1077): 100.0% | Area under the dose-response curve (AUC) MKL-1 Replicate 1 ([2]; follow-up screen, MKL-1, replicate 1): 300.3 | Area under the dose-response curve (AUC) MKL-1 Replicate 2 ([2]; follow-up screen, MKL-1, replicate 2): 306.3 | Area under the dose-response curve (AUC) MKL-1 Replicate 3 ([2]; follow-up screen, MKL-1, replicate 3): 312.1 | Percent viability ([3]; Log (M) -5.33646): 26.6% | Percent viability ([3]; Log (M) -5.81358): 59.4% | Percent viability ([3]; Log (M) -6.2907): 79.7% | Percent viability ([3]; Log (M) -6.76782): 87.3% | Percent viability ([3]; Log (M) -7.24494): 90.3% | Percent viability ([3]; Log (M) -7.72207): 87.4% | Percent viability ([3]; Log (M) -8.19919): 90.8% | Percent viability ([3]; Log (M) -8.67631): 96.9% | Percent viability ([3]; Log (M) -9.15343): 92.6% | Percent viability ([3]; Log (M) -9.63055): 87.8% | Percent viability ([3]; Log (M) -10.1077): 88.7% | Area under the dose-response curve (AUC) MCC26 Replicate 1 ([3]; follow-up screen, MCC26, replicate 1): 399.1 | Area under the dose-response curve (AUC) MCC26 Replicate 2 ([3]; follow-up screen, MCC26, replicate 2): 396.0 | Area under the dose-response curve (AUC) MCC26 Replicate 3 ([3]; follow-up screen, MCC26, replicate 3): 410.6 | Percent viability ([4]; Log (M) -5.33646): 23.8% | Percent viability ([4]; Log (M) -5.81358): 31.7% | Percent viability ([4]; Log (M) -6.2907): 25.7% | Percent viability ([4]; Log (M) -6.76782): 41.2% | Percent viability ([4]; Log (M) -7.24494): 47.8% | Percent viability ([4]; Log (M) -8.19919): 107.2% | Percent viability ([4]; Log (M) -8.67631): 105.4% | Percent viability ([4]; Log (M) -9.15343): 101.2% | Percent viability ([4]; Log (M) -9.63055): 100.0% | Percent viability ([4]; Log (M) -10.1077): 100.0% | Area under the dose-response curve (AUC) WAGA Replicate 1 ([4]; follow-up screen, replicate 1): 353.1 | Area under the dose-response curve (AUC) WAGA Replicate 2 ([4]; follow-up screen, replicate 2): 343.3 | Area under the dose-response curve (AUC) WAGA Replicate 3 ([4]; follow-up screen, replicate 3): 330.6 | Percent viability ([5]; Log (M) -5.33646): 29.1% | Percent viability ([5]; Log (M) -5.81358): 58.8% | Percent viability ([5]; Log (M) -6.2907): 69.6% | Percent viability ([5]; Log (M) -6.76782): 70.0% | Percent viability ([5]; Log (M) -7.24494): 74.4% | Percent viability ([5]; Log (M) -7.72207): 84.6% | Percent viability ([5]; Log (M) -8.19919): 94.4% | Percent viability ([5]; Log (M) -8.67631): 100.2% | Percent viability ([5]; Log (M) -9.15343): 102.6% | Percent viability ([5]; Log (M) -9.63055): 98.1% | Percent viability ([5]; Log (M) -10.1077): 97.1% | Area under the dose-response curve (AUC) UISO Replicate 1 ([5]; follow-up screen, replicate 1): 350.8 | Area under the dose-response curve (AUC) UISO Replicate 2 ([5]; follow-up screen, replicate 2): 389.2 | Area under the dose-response curve (AUC) UISO Replicate 3 ([5]; follow-up screen, replicate 3): 355.0 | Percent viability ([6]; Log (M) -5.33646): 14.5% | Percent viability ([6]; Log (M) -5.81358): 69.4% | Percent viability ([6]; Log (M) -6.2907): 72.9% | Percent viability ([6]; Log (M) -6.76782): 89.8% | Percent viability ([6]; Log (M) -7.24494): 103.0% | Percent viability ([6]; Log (M) -7.72207): 85.9% | Percent viability ([6]; Log (M) -8.19919): 106.1% | Percent viability ([6]; Log (M) -8.67631): 96.2% | Percent viability ([6]; Log (M) -9.15343): 118.3% | Percent viability ([6]; Log (M) -9.63055): 100.0% | Percent viability ([6]; Log (M) -10.1077): 108.5% | Area under the dose-response curve (AUC) MCC13 Replicate 1 ([6]; follow-up screen, MCC13, replicate 1): 420.2 | Area under the dose-response curve (AUC) MCC13 Replicate 2 ([6]; follow-up screen, MCC13, replicate 2): 430.9 | Area under the dose-response curve (AUC) MCC13 Replicate 3 ([6]; follow-up screen, MCC13, replicate 3): 459.4 | potency in VP-MCC cell lines versus other human cancer cell lines (GDSC) [7]: higher in VP-MCC cell lines than in hundreds of other human cancer cell lines | Percent viability ([8]; Log (M) -5.33646): 29.1% | Percent viability ([8]; Log (M) -5.81358): 82.7% | Percent viability ([8]; Log (M) -6.2907): 74.7% | Percent viability ([8]; Log (M) -6.76782): 62.9% | Percent viability ([8]; Log (M) -7.24494): 51.8% | Percent viability ([8]; Log (M) -7.72207): 51.5% | Percent viability ([8]; Log (M) -8.19919): 79.6% | Percent viability ([8]; Log (M) -8.67631): 111.3% | Percent viability ([8]; Log (M) -9.15343): 116.9% | Percent viability ([8]; Log (M) -9.63055): 110.0% | Percent viability ([8]; Log (M) -10.1077): 101.6% | Area under the dose-response curve (AUC) MKL-2 Replicate 1 ([8]; follow-up screen, MKL-2, replicate 1): 388.8 | Area under the dose-response curve (AUC) MKL-2 Replicate 2 ([8]; follow-up screen, MKL-2, replicate 2): 384.9 | Area under the dose-response curve (AUC) MKL-2 Replicate 3 ([8]; follow-up screen, MKL-2, replicate 3): 409.6
